# Results taken from ChEMBL document CHEMBL4483862, “Open-source discovery of chemical leads for next-generation chemoprotective antimalarials” (2018).
# System: Plasmodium berghei
# Experiment: Luciferase/luciferin-expressing antifolate-resistant parasites were used to infect a culture of HepG2 cells that were pre-incubated with compounds. Infected hepatocytes emit light due to the luciferase reaction. Assay results are presented as the percent inhibition of light emission compared to control. […]
# Assay type: functional
# Conditions: sporozoite; for IC90: read-out: LUCIFERASE INFECTION ASSAY - IC90
# [1] = read-out: LUCIFERASE INFECTION ASSAY - IC50
Compound,IC50 [1],IC90,other results
CC(=O)c1c[nH]c(C(=O)Nc2nc(C)c(-c3ccccn3)s2)c1,> 10 µM,> 10 µM,
COc1cc(/C=N/NC(=O)c2ccccc2NS(=O)(=O)c2cccs2)ccc1OCCC(C)C,,1.06 µM,"IC50 (PBLUC_HILL_SLOPE 1.78, PBLUC_R_SQUARED 0.852, read-out: LUCIFERASE INFECTION ASSAY - IC50): 0.307 µM"
CCCOc1ccc(S(=O)(=O)NC2CCCCC2)c2ccccc12,,8.57 µM,"IC50 (HEPG2TOX_HILL_SLOPE 9.17, HEPG2TOX_R_SQUARED 0.712, PBLUC_HILL_SLOPE 2.91, PBLUC_R_SQUARED 0.385, read-out: LUCIFERASE INFECTION ASSAY - IC50): 4.03 µM"
FC(F)(F)c1cc(Nc2ncc(-c3ccc4c(c3)OCCCO4)s2)cc(C(F)(F)F)c1,5.2 µM,> 7.17 µM,
CCOC(=O)c1sc(N)c(C#N)c1COC(=O)/C=C/c1cn(-c2ccccc2)nc1-c1ccc(C)cc1,,> 10 µM,"IC50 (PBLUC_HILL_SLOPE 3.64, PBLUC_R_SQUARED 0.326, read-out: LUCIFERASE INFECTION ASSAY - IC50): 6.32 µM"
Cc1ccc(/C(C#N)=C/c2ccc3c(c2)OCO3)cc1,,> 12.5 µM,"IC50 (HEPG2TOX_HILL_SLOPE 2.41, HEPG2TOX_R_SQUARED 0.881, PBLUC_HILL_SLOPE 2.57, PBLUC_R_SQUARED 0.299, read-out: LUCIFERASE INFECTION ASSAY - IC50): 9.11 µM"
Cc1c(C(=O)Nc2ncc(Cc3ccccc3)s2)[nH]c2c1C(=O)CC(C)(C)C2,> 10 µM,> 10 µM,
O=C(CSCCS(=O)(=O)c1ccc(Cl)cc1)Nc1cc(C(F)(F)F)cc(C(F)(F)F)c1,,> 6.52 µM,"IC50 (FFLUC_HILL_SLOPE 10.6, FFLUC_R_SQUARED 0.485, read-out: LUCIFERASE INFECTION ASSAY - IC50): > 6.52 µM"
Cc1nc(C2(NC(=O)COc3ccc4ccccc4c3)CCCCC2)no1,,> 10 µM,"IC50 (FFLUC_HILL_SLOPE 2.65, FFLUC_R_SQUARED 0.0928, read-out: LUCIFERASE INFECTION ASSAY - IC50): > 10 µM"
Cc1cccc(C2NC(=O)NC3=C2C(=O)N(CCc2ccccc2)C3)c1 (stereo not given),> 10 µM,> 10 µM,
CC(C)NC(=O)c1c(NC(=O)c2cccc(C#N)c2)nc2ccccn12,,7.68 µM,"IC50 (HEPG2TOX_HILL_SLOPE 1.47, HEPG2TOX_R_SQUARED 0.952, PBLUC_HILL_SLOPE 19.2, PBLUC_R_SQUARED 0.401, read-out: LUCIFERASE INFECTION ASSAY - IC50): 6.85 µM"
C=CCN(C(=O)c1ccccc1OCc1c(C)noc1C)c1nc2c(s1)CCCC2,> 10 µM,> 10 µM,
Cc1cc(C(=O)Nc2ccc(Cl)cc2)c(C)n1-c1ccccc1,,0.729 µM,"IC50 (PBLUC_HILL_SLOPE 1.26, PBLUC_R_SQUARED 0.88, read-out: LUCIFERASE INFECTION ASSAY - IC50): 0.128 µM"
FC(F)(F)Oc1ccc(N=C(S)Nc2ccc(OC(F)(F)F)cc2)cc1,> 8.33 µM,> 8.33 µM,
N#C/C(=C\c1cn(Cc2ccccc2)nc1-c1cccnc1)c1ccc([N+](=O)[O-])cc1,0.786 µM,1.62 µM,
CCCCCC(=O)Nc1ccc(C2=Nn3c(Cc4cccc5ccccc45)nnc3SC2)cc1,,> 10 µM,"IC50 (HEPG2TOX_HILL_SLOPE 0.272, HEPG2TOX_R_SQUARED 0.219, PBLUC_HILL_SLOPE 1.92, PBLUC_R_SQUARED 0.644, read-out: LUCIFERASE INFECTION ASSAY - IC50): 7.04 µM"
CC1=C2CCC(C)CC23C2C(=O)N(Cc4ccc(Cl)cc4)C(=O)C2C1C1C(=O)N(Cc2ccc(Cl)cc2)C(=O)C13 (stereo not given),,> 5.71 µM,"IC50 (HEPG2TOX_HILL_SLOPE 0.355, HEPG2TOX_R_SQUARED 0.414, PBLUC_HILL_SLOPE 1.68, PBLUC_R_SQUARED 0.433, read-out: LUCIFERASE INFECTION ASSAY - IC50): 3.28 µM"
Cc1cc2ccccn2c1C(=O)c1cccc2nc3ccccc3nc12,,> 10 µM,"IC50 (PBLUC_HILL_SLOPE 2.29, PBLUC_R_SQUARED 0.419, read-out: LUCIFERASE INFECTION ASSAY - IC50): 7.29 µM"
O=C(Nc1ccc(-n2cccn2)nc1)C1=NN(c2ccccc2)C(=O)CN1,,> 10 µM,"IC50 (PBLUC_HILL_SLOPE 2.66, PBLUC_R_SQUARED 0.194, read-out: LUCIFERASE INFECTION ASSAY - IC50): > 10 µM"
CCc1ccc(N(C(=O)C2CCN(C(=O)C(C)(C)C)CC2)c2nc3ccccc3s2)cc1,> 10 µM,> 10 µM,
CCN(CC)Cc1ccc(OCC(=O)Nc2ccc(Cl)cc2)c2ncccc12,,> 10 µM,"IC50 (FFLUC_HILL_SLOPE 1.82, FFLUC_R_SQUARED 0.795, HEPG2TOX_HILL_SLOPE 1.24, HEPG2TOX_R_SQUARED 0.929, read-out: LUCIFERASE INFECTION ASSAY - IC50): > 10 µM"
CN1CCN(c2ccc(Cl)cc2NC(=O)c2cccc(Oc3ccccc3)c2)CC1,,2.23 µM,"IC50 (PBLUC_HILL_SLOPE 1.31, PBLUC_R_SQUARED 0.699, read-out: LUCIFERASE INFECTION ASSAY - IC50): 0.415 µM"
O=C(Nc1ccc(-c2nc3ccccc3[nH]2)cc1)c1cccc(S(=O)(=O)NC2CC2)c1,,3 µM,"IC50 (HEPG2TOX_HILL_SLOPE 2.58, HEPG2TOX_R_SQUARED 0.64, PBLUC_HILL_SLOPE 5.30, 5.83, PBLUC_R_SQUARED 0.508, 0.438, read-out: LUCIFERASE INFECTION ASSAY - IC50): 2.03 µM"

Compound,IC50 [1],IC90,other results
CN(C)c1cccc(-c2cnc3sc(NCCCO)nn23)c1,> 10.4 µM,> 10.4 µM,
COc1ccccc1-c1nc(COC(=O)c2cccnc2SC)cs1,> 10 µM,> 10 µM,
Cn1c(-c2ccc(Cl)cc2)csc1=Nc1ccc(Cl)c(Cl)c1,,3.46 µM,"IC50 (FFLUC_HILL_SLOPE 8.54, FFLUC_R_SQUARED 0.841, PBLUC_HILL_SLOPE 1.64, PBLUC_R_SQUARED 0.468, read-out: LUCIFERASE INFECTION ASSAY - IC50): 0.91 µM"
O=S(=O)(Nc1cc(C(F)(F)F)cc(C(F)(F)F)c1)c1cc(F)c(Br)cc1F,,5.67 µM,"IC50 (HEPG2TOX_HILL_SLOPE 2.12, HEPG2TOX_R_SQUARED 0.942, PBLUC_HILL_SLOPE 3.41, PBLUC_R_SQUARED 0.612, read-out: LUCIFERASE INFECTION ASSAY - IC50): 2.98 µM"
Cc1onc(-c2c(Cl)cccc2Cl)c1C(=O)Nc1ccccc1C(=O)NCc1c(F)cccc1Cl,> 6.19 µM,> 6.19 µM,
CCOC(=O)c1c(C)[nH]c(C(=O)OCC(=O)NC23CC4CC(CC(C4)C2)C3)c1C,> 10 µM,> 10 µM,
c1ccc2c(Sc3ncnc4sccc34)cccc2c1,,> 11.2 µM,"IC50 (PBLUC_HILL_SLOPE 9.33, PBLUC_R_SQUARED 0.332, read-out: LUCIFERASE INFECTION ASSAY - IC50): > 11.2 µM"
CCOC(=O)c1sc(SCc2ccc(Cl)cc2)c2c1CCCC2=O,,> 8.66 µM,"IC50 (FFLUC_HILL_SLOPE 175, FFLUC_R_SQUARED 0.438, PBLUC_HILL_SLOPE 6.18, PBLUC_R_SQUARED 0.111, read-out: LUCIFERASE INFECTION ASSAY - IC50): > 8.66 µM"
COc1ccc(C)cc1CCNC(=O)c1cc(C2CC2)nn1-c1ccccc1,> 10 µM,> 10 µM,
Cc1nc(NC(=O)Cc2nn(C)c(=O)c3ccccc23)sc1-c1ccccn1,,> 10 µM,"IC50 (HEPG2TOX_HILL_SLOPE 1.36, HEPG2TOX_R_SQUARED 0.975, PBLUC_HILL_SLOPE 4.04, PBLUC_R_SQUARED 0.363, read-out: LUCIFERASE INFECTION ASSAY - IC50): 8.34 µM"
c1ccc(Oc2ccc(-c3cnc4cnc(-c5cccnc5)cn34)cc2)cc1,3 µM,6.96 µM,
Cc1ccccc1COC(=O)C1(NC(=O)NCc2ccccc2)CCCC1,> 10 µM,> 10 µM,
CC1CCc2c(sc3nc(CN4CCOCC4)nc(Oc4ccc(Cl)c5cccnc45)c23)C1 (stereo not given),> 10 µM,> 10 µM,
CCCCNC(=O)c1c(NC(=O)COc2ccccc2)nc2ccc(C)cn12,,8.47 µM,"IC50 (FFLUC_HILL_SLOPE 32.7, FFLUC_R_SQUARED 0.34, HEPG2TOX_HILL_SLOPE 7.48, HEPG2TOX_R_SQUARED 0.362, PBLUC_HILL_SLOPE 14.2, PBLUC_R_SQUARED 0.182, read-out: LUCIFERASE INFECTION ASSAY - IC50): 7.25 µM"
CN(C)CCNC(=O)c1ccc(-c2cn3c(-c4ccc5c(c4)OCO5)cnc3cn2)cc1,,> 7.68 µM,"IC50 (PBLUC_HILL_SLOPE 12, PBLUC_R_SQUARED 0.209, read-out: LUCIFERASE INFECTION ASSAY - IC50): > 7.68 µM"
O=C(NC(c1ccc(F)cc1)c1cccs1)c1cc2ccccc2o1 (stereo not given),> 10 µM,> 10 µM,
COc1ccc(-c2cn(CC(=O)c3ccccc3)c3[n+]2-c2ccccc2CC3)cc1,,> 10 µM,"IC50 (HEPG2TOX_HILL_SLOPE 1.82, HEPG2TOX_R_SQUARED 0.932, PBLUC_HILL_SLOPE 2.71, PBLUC_R_SQUARED 0.363, read-out: LUCIFERASE INFECTION ASSAY - IC50): 4.75 µM"
NC(CCc1ccccc1)c1csc(Nc2cc(NCCCO)ncn2)n1 (stereo not given),,> 8.58 µM,"IC50 (HEPG2TOX_HILL_SLOPE 1.38, HEPG2TOX_R_SQUARED 0.93, PBLUC_HILL_SLOPE 3.41, PBLUC_R_SQUARED 0.149, read-out: LUCIFERASE INFECTION ASSAY - IC50): 6.73 µM"
Cc1nn(Cc2n[nH]c(=S)o2)c(C)c1Br,> 11.4 µM,> 11.4 µM,
Cc1ccc(S(=O)(=O)Nc2ccc(C(=O)/C=C/c3ccc(C(C)(C)C)cc3)cc2)cc1,> 10 µM,> 10 µM,
O=c1c2ccccc2nc(Sc2ccc([N+](=O)[O-])c(C(F)(F)F)c2)n1-c1ccc(OC(F)F)cc1,> 10 µM,> 10 µM,
OC(/C(=N/Nc1ncnc2ccccc12)c1ccccc1)c1ccccc1 (stereo not given),,6.04 µM,"IC50 (HEPG2TOX_HILL_SLOPE 1.63, HEPG2TOX_R_SQUARED 0.814, PBLUC_HILL_SLOPE 71.4, PBLUC_R_SQUARED 0.509, read-out: LUCIFERASE INFECTION ASSAY - IC50): 5.86 µM"
